From patent publication US9701689B2, “Substituted pyridines and pyridazines as CCR10 receptor inhibitors” (KYOWA HAKKO KIRIN CO., LTD., priority 2012, dated 2017)

target: T1, human CCR10 (Homo sapiens, UniProt P46092); assay: CCR10 antagonistic effect: calcium assay of human CCR10 (CTACK-induced increase of intracellular calcium in hCCR10G16 cells); assay type: cell-based; settings: at a concentration of not more than 1000 nmol/L; human CCR10-expressing hCCR10G16 cells, 300 nmol/L CTACK added; read-out: inhibition of increase in the calcium ion concentration
T1 construct: expressed in transfected cells; host or cells: KJMGER8 cells (Namalwa cell-derived line), beta-estradiol-induced; hCCR10G16 cells
T1 sequence (P46092 1-362): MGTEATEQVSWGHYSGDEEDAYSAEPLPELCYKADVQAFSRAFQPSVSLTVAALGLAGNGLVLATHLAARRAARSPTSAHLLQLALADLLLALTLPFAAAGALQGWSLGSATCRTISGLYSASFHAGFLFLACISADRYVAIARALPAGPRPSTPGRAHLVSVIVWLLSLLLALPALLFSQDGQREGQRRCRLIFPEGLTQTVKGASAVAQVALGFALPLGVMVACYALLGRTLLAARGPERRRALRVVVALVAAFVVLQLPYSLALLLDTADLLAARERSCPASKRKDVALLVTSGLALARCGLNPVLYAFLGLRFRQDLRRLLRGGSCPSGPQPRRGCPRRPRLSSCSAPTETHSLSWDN
Outline: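 KJMGER8-derived hCCR10G16 cells (CCR10 plus Gα16, induced 24 h with 10 nmol/L β-estradiol), Fluo-3 loaded, preincubated with compound 30 min at 37 °C. Stimulated with CTACK (300 nmol/L solution before addition); calcium read ~5 min by FDSS, max−min fluorescence; % inhibition vs control.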

Inhibition at up to 1 µM, ≥ 50%:
CNC(=O)[C@@H]1C[C@@H](O)CN1S(=O)(=O)c1cc(Nc2ccc(F)cc2C)c(C(=O)N2CCC(c3ccc(F)cc3)CC2)cn1 [Compound 141, (2S,4R)-1-{4-(4-fluoro-2-methylphenylamino)-5-[4-(4-fluorophenyl)piperidine-1-carbonyl]pyridin-2-ylsulfonyl}-4-hydroxy-N-methylpyrrolidine-2-carboxamide]
Cc1cc(F)ccc1Nc1c(C(=O)N2CCC(c3ccc(F)cc3)CC2)cnc(S(=O)(=O)Nc2nccs2)c1Cl [Compound 188, 3-chloro-4-(4-fluoro-2-methylphenylamino)-5-[4-(4-fluorophenyl)piperidine-1-carbonyl]-N-(thiazol-2-yl)pyridine-2-sulfonamide]
COC1(c2ccc(F)cc2)CCN(C(=O)c2cnc(S(N)(=O)=O)c(Cl)c2NC2(c3ccccc3)CC2)CC1 [Compound 295, 3-chloro-5-[4-(4-fluorophenyl)-4-methoxypiperidine-1-carbonyl]-4-(1-phenylcyclopropylamino)pyridine-2-sulfonamide]
NS(=O)(=O)c1ncc(C(=O)N2CCC(c3ccc(F)cc3)CC2)c(Nc2cc(F)c(F)cc2F)c1Cl [Compound 34, 3-chloro-5-[4-(4-fluorophenyl)piperidine-1-carbonyl]-4-(2,4,5-trifluorophenylamino)pyridine-2-sulfonamide]
NS(=O)(=O)c1cc(Nc2ccc3c(c2)COC3)c(C(=O)N2CCC(c3ccc(F)cc3)CC2)cn1 [Compound 3, 4-(1,3-dihydroisobenzofuran-5-ylamino)-5-[4-(4-fluorophenyl)piperidine-1-carbonyl]pyridine-2-sulfonamide]
Cc1c(S(=O)(=O)Nc2ccon2)ncc(C(=O)N2CCC(c3ccc(F)cc3)CC2)c1Nc1ccc(Cl)cc1F [Compound 270, 4-(4-chloro-2-fluorophenylamino)-5-[4-(4-fluorophenyl)piperidine-1-carbonyl]-N-(isoxazol-3-yl)-3-methylpyridine-2-sulfonamide]
Cc1c(S(=O)(=O)Nc2ccon2)ncc(C(=O)N2CCC(c3ccc(F)cc3)CC2)c1Nc1cc(F)ccc1Cl [Compound 274, 4-(2-chloro-5-fluorophenylamino)-5-[4-(4-fluorophenyl)piperidine-1-carbonyl]-N-(isoxazol-3-yl)-3-methylpyridine-2-sulfonamide]
CCNC(=O)N(C)S(=O)(=O)c1cc(Nc2ccc(F)cc2C)c(C(=O)N2CCC(c3ccc(F)cc3)CC2)cn1 [Compound 23, N-(ethylcarbamoyl)-4-(4-fluoro-2-methylphenylamino)-5-[4-(4-fluorophenyl)piperidine-1-carbonyl]-N-methylpyridine-2-sulfonamide]
CC(=O)c1ccc(C)c(NC2=CC=NC(S(N)(=O)=O)C2(Cl)C(=O)N2CCC(c3ccc(F)cc3)CC2)c1 (centres unmarked) [Compound 303, 4-(5-acetyl-2-methylphenylamino)-3-chloro-3-[4-(4-fluorophenyl)piperidine-1-carbonyl]pyridine-2-sulfonamide]
CC(=O)NC1CCN(S(=O)(=O)c2cc(Nc3ccc(F)cc3C)c(C(=O)N3CCC(c4ccc(F)cc4)CC3)cn2)CC1 [Compound 136, N-{1-{4-(4-fluoro-2-methylphenylamino)-5-[4-(4-fluorophenyl)piperidine-1-carbonyl]pyridin-2-ylsulfonyl}piperidin-4-yl}acetamide]
Cc1cc(F)ccc1Nc1cc(S(=O)(=O)NC2CCN(C)C2=O)ncc1C(=O)N1CCC(c2ccc(F)cc2)CC1 (centres unmarked) [Compound 8, 4-(4-fluoro-2-methylphenylamino)-5-[4-(4-fluorophenyl)piperidine-1-carbonyl]-N-(1-methyl-2-oxopyrrolidin-3-yl)pyridine-2-sulfonamide]
